Data on two molecules can be found in US20030138399A1, “Anti-inflammatory therapy for inflammatory mediated infection” (priority 1999, published 2003).

Where two headings read alike, the source gives them in different places.

Data set [1] relates to HIV pNLlucΔBgl pseudotyped with M-tropic JRFL envelope. Briefly: HIV replication (luciferase expression) in activated PBMCs, M-tropic pseudotyped virus. The class given is cell-based. Conditions: 4 days in culture. The protocol:
(§1) The PBMCs comprise a heterogeneous population of CD4 and CD8 cells with chemokines and cytokines present in the medium. […] Replication incompetent HIV pNLlucΔBgl pseudotyped with either M-tropic JRFL or T-tropic LAI envelope was used for the infection. Luciferase expression was used to assess the degree of HIV replication after 4 days in culture. Medication treated cultures were compared with samples receiving no drug. Cells were analyzed by flow cytometry for cell death after 4 days by staining with 7-AAD.

Data set [2] deals with HIV pNLlucΔBgl pseudotyped with T-tropic LAI envelope. Briefly: HIV replication (luciferase expression) in activated PBMCs, T-tropic pseudotyped virus. The class given is cell-based. Conditions: 4 days in culture. Here is the method:
as §1

The test system of data set [3] is activated PBMCs. Conditions: 4 days. The protocol:
as §1

The test system of data set [4] is HIV virus that expresses luciferase when replicated. Briefly: FIG. 19: HIV replication in cultured infected cells, luciferase by luminometer. The class given is cell-based. Here is the method: Cultured cells infected with HIV were treated with 5-ASA or AZT in the amounts indicated. Luciferase expression, which indicates the amount of HIV replication, was quantified using a luminometer. The data shown represent nine separate studies.
(§2) Using a culture of cells that are infected with an HIV virus that expresses luciferase when replicated, but without any treatment as a control, Asacol at the two lowest doses (30 and 300 micrograms) is able to inhibit HIV replication by approximately 20%. At the 3000 microgram dose, the amount of suppression is higher, but this is due, in part, to cellular toxicity of the drug at this dose (approximately 30% cell death vs. 13-15% cell death for 30 and 300 microgram doses; AZT produces approximately 16% cell death at a dose of 5 μg). […] While the anti-inflammatory activity of Asacol is not as potent at suppressing HIV replication as is AZT, the activity is nonetheless statistically significant.

In data set [5] the test system is cultured cells infected with HIV. The data set can be described thus: FIG. 19 study: cell death (cellular toxicity of the drug). The class given is cell-based.
Text: as §2

Take `Nc1ccc(O)c(C(=O)O)c1` [5-ASA, 5-aminosalicylic acid]: the “% Change from untreated culture (luciferase expression), M-tropic HIV” value in data set [1] (3 μM) is 46.2%; in data set [1] (30 μM) it was 50.3%; in data set [1] (300 μM), 48.9%; in data set [1] (3000 μM, *P < .05), 67.6* %. The “% Change from untreated culture (luciferase expression), T-Tropic HIV” value is 3.2% in data set [2] (2 μM), 22.4% in data set [2] (20 μM) and 26.0% in data set [2] (200 μM). Besides, the “% death” value in data set [3] (30 μM) amounted to 7.3%; in data set [3] (300 μM), 9.4%; in data set [3] (3000 μM), 13.3%. Moreover, in data set [4] (3000 microgram dose, compared with lower doses), the “amount of suppression of HIV replication” value is given as “higher”. Besides, the “inhibition of HIV replication” value in data set [4] (two lowest doses (30 and 300 micrograms)) is “approximately 20%”. In addition, the cell death in data set [5] (30 and 300 microgram doses) is 13-15%; in data set [5] (3000 microgram dose) it was “approximately 30%”.
Consider `Cc1cn([C@H]2C[C@H](N=[N+]=[N-])[C@@H](CO)O2)c(=O)[nH]c1=O` [AZT, zidovudine], for which the “% Change from untreated culture (luciferase expression), M-tropic HIV” value in data set [1] (5 μM, *P < .05) is reported as 80.0* %. Also, in data set [2] (5 μM, *P < .05), the “% Change from untreated culture (luciferase expression), T-Tropic HIV” value is on record as 99.3* %. Moreover, in data set [5] (dose of 5 μg), the cell death result is reported as “approximately 16%”.
